Among the data in patent publication US8324225B2, “Pyrrolopyrimidine compounds and their uses” (Novartis AG, priority 2006, dated 2012) are IC50 values, retold here.

A value given as a limit tells only on which side of the number the result lay.

Chain of CDK4 (P11802 whole entry): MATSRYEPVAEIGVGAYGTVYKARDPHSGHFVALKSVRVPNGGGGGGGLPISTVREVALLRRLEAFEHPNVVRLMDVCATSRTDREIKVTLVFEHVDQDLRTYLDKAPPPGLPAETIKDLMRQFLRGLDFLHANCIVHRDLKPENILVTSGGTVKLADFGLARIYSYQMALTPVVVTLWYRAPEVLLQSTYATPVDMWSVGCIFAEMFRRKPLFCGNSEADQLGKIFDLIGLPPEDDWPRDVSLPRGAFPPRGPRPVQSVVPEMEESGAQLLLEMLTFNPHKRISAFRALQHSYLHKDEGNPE
Chain of CDK4 (P24385 whole entry partner): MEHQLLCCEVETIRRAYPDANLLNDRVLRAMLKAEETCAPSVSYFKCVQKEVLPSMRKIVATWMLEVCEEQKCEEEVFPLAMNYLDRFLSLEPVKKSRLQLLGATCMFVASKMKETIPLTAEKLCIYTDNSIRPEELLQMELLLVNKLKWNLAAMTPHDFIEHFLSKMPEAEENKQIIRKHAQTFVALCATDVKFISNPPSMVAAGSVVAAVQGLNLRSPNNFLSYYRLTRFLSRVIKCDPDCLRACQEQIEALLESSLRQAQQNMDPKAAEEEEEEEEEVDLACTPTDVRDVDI
Chain of CDK4/Cyclin-D1 kinase complex (P11802 whole entry): as the sequence (P11802 whole entry) above
Chain of CDK4/Cyclin-D1 kinase complex (P24385 whole entry partner): as the sequence (P24385 whole entry partner) above

The target of one assay is CDK4/Cyclin-D1 kinase complex (Homo sapiens, UniProt P11802). Nature of the assay: CDK4 ELISA based assay, Rb phosphorylation at Serine780. It is filed as biochemical. The settings on record: Table C. From the text:
The compounds that inhibit the CDK4 kinase activity would inhibit the signal output of the assay.
Regarding `Cc1cn(C2CCCCC2)c2nc(Nc3ccc(N4CCNCC4)cn3)ncc12`, the IC50 is less than 10 µM. In turn, `CC(=O)N1CCN(c2ccc(Nc3ncc4ccn(C5CCCC5)c4n3)nc2)CC1` had an IC50 of more than 10 µM. Still for that read-out and setting: with `c1cc(Nc2ncc3ccn(C4CCCC4)c3n2)ncc1N1CCNCC1` the figure was more than 10 µM; with `Cc1cn(C2CC2)c2nc(Nc3ccc(N4CCNCC4)cc3)ncc12`, less than 10 µM; with `c1cc(N2CCNCC2)ccc1Nc1ncc2ccn(C3CCCC3)c2n1`, less than 10 µM. In turn, `Cc1cn(C2CCCC2)c2nc(Nc3ccc(N4CCNCC4)cn3)ncc12` gave an IC50 of less than 10 µM.

`CC(=O)N1CCN(c2ccc(Nc3ncc4ccn(C5CCCC5)c4n3)cc2)CC1` displayed an IC50 of more than 10 µM. `CN1CCN(c2ccc(Nc3ncc4ccn(C5CCCC5)c4n3)cc2)CC1` had an IC50 of less than 10 µM. In turn, `CC(C)(C)OC(=O)N1CCN(c2ccc(Nc3ncc4ccn(C5CCCC5)c4n3)nc2)CC1` gave an IC50 of more than 10 µM. Compound `Cc1cn(C2CC2)c2nc(Nc3ccc(N4CCNCC4)cn3)ncc12` gave an IC50 of less than 10 µM.

For the compound `CC(=O)N1CCN(c2ccc(Nc3ncc4c(C)cn(C5CCCC5)c4n3)cc2)CC1`, the IC50 is less than 10 µM. `Cc1cn(C2CCCC2)c2nc(Nc3ccc(N4CCN(C)CC4)cc3)ncc12`: the IC50 is less than 10 µM.

The next assay concerns the target CDK2/Cyclin-A kinase complex (Homo sapiens, UniProt P24941). Nature of the assay: CDK2 IMAP fluorescence polarization assay. It is filed as biochemical. The settings on record: Table C; read-out: CDK2 IC50. From the text:
In order to test the CDK2 activity of the compounds of the invention, the CDK2 assay is a fluorescence polarization assay, where the enzyme is a purified active CDK2/Cyclin-A kinase complex and the substrate is a synthesized peptide derived from Histone H1. This assay utilizes the IMAP technology from Molecular Devices. The active CDK2/Cyclin-A complex phosphorylates the peptide substrate, which is conjugated with the TAMRA tag. The phosphorylated site is then recognized by a metal containing molecule that interacts with the TAMRA tag to induce a high fluorescence polarization. The compounds that inhibit the CDK2 kinase activity would inhibit the fluorescence output of the assay.
For orientation: Polarisation of emitted light reports the rotation of a fluorescent probe.
In the case of `Cc1cn(C2CCCC2)c2nc(Nc3ccc(N4CCNCC4)cc3)ncc12`, the IC50 was less than 10 µM. Consider `Cc1cn(C2CCCC2)c2nc(Nc3ccc(N4CCNCC4)cn3)ncc12`, for which the IC50 was more than 10 µM.

Turning to `CC(=O)N1CCN(c2ccc(Nc3ncc4c(C)cn(C5CCCC5)c4n3)cc2)CC1`, the IC50 was less than 10 µM. Same read-out and setting: to `Cc1cn(C2CCCC2)c2nc(Nc3ccc(N4CCN(C)CC4)cc3)ncc12` belongs more than 10 µM.

Another assay addresses CDK4 (Homo sapiens, UniProt P11802). Nature of the assay: CDK4 HTRF. The class given is biochemical. As to conditions: Table E; read-out: CDK4 HTRF/IC50 [umol l − 1]. (In TR-FRET formats the signal depends on donor and acceptor labels being close together.)
Consider `CCC(CC)n1c(COC)cc2cnc(Nc3ccc(N4CCN(C(C)=O)CC4)cc3)nc21` [Example 379], for which the IC50 is less than 10 µM. Regarding `Cc1cn(-c2ccccc2)c2nc(Nc3ccc(N4CCNCC4)cc3)ncc12` [Example 437], the IC50 was less than 10 µM. As for `Cc1cn(-c2nccs2)c2nc(Nc3ccc(N4CCNCC4)cn3)ncc12` [Example 321], the IC50 was less than 10 µM. Turning to `CCc1cn(C2CCCC2)c2nc(Nc3ccc(N4CCNCC4)cc3)ncc12` [Example 438], the IC50 is less than 10 µM. Regarding `Cc1cn(C2CCCC2)c2nc(Nc3ccc(C(=O)N4CCOCC4)cc3)ncc12` [Example 292], the IC50 was less than 10 µM.

Regarding `CCC(C(N)=O)n1ccc2cnc(Nc3ccc(N4CCN(C(C)=O)CC4)cc3)nc21` (centres unmarked) [Example 227], the IC50 was less than 10 µM. `CCC(CC)n1c(CNc2ccon2)cc2cnc(Nc3ccc(N4CCN(C(C)=O)CC4)cc3)nc21` [Example 371]: the IC50 is less than 10 µM. Consider `CCC(CC)n1c(C(=O)Nc2ccc(C(C)(C)C)cc2)cc2cnc(Nc3ccc(N4CCNCC4)cc3)nc21` [Example 349], for which the IC50 was less than 10 µM. For `Cc1cn(C2CCCC2)c2nc(Nc3ccc(N4CCN(S(C)(=O)=O)CC4)cc3)ncc12` [Example 286], the IC50 was less than 10 µM. For the compound `CCC(CC)n1c(C(=O)N2CCCC2)cc2cnc(Nc3ccc(N4CCNCC4)cc3)nc21` [Example 337], the IC50 was less than 10 µM. `Cc1cn(C2CCCC2)c2nc(Nc3ccc4[nH]ncc4c3)ncc12` [Example 281]: the IC50 was less than 10 µM.

Take `CCC(C(=O)OC)n1ccc2cnc(Nc3ccc(N4CCNCC4)cc3)nc21` (centres unmarked) [Example 221]: the IC50 was less than 10 µM. The same measure, in the same setting: to `CN1CCN(c2ccc(Nc3ncc4ccn(C5CCCC5)c4n3)nc2)CC1` [Example 255] belongs less than 10 µM; to `Cc1c(C(=O)N(C)C)n(C2CCCC2)c2nc(Nc3ccc(N4CCNCC4)cn3)ncc12` [Example 392], less than 10 µM; to `CCC(CC)n1c(CNC2CCCC2)cc2cnc(Nc3ccc(N4CCN(C(C)=O)CC4)cc3)nc21` [Example 370], less than 10 µM. Still for that read-out and setting: to `CC(=O)N1CCN(c2ccc(Nc3ncc4ccn(C5CCCCC5=O)c4n3)cc2)CC1` (centres unmarked) [Example 226] belongs less than 10 µM. On to `Cc1cn(-c2cccnc2)c2nc(Nc3ccc(N4CCNCC4)cc3)ncc12` [Example 322], for which the IC50 is less than 10 µM.

As for `CCC(CC)n1c(CNC(C)C)cc2cnc(Nc3ccc(N4CCN(C(C)=O)CC4)cc3)nc21` [Example 366], the IC50 is less than 10 µM.

As to `Cc1cn(C2CCCC2)c2nc(Nc3ccc(CO)cc3)ncc12` [Example 466], the IC50 is less than 10 µM.

As for `CCC(CC)n1c(CNCc2ccco2)cc2cnc(Nc3ccc(N4CCN(C(C)=O)CC4)cc3)nc21` [Example 449], the IC50 was less than 10 µM. The same measure, in the same setting: with `CCC(C(N)=O)n1ccc2cnc(Nc3ccc(N4CCNCC4)cc3)nc21` (centres unmarked) [Example 234] the figure was less than 10 µM; with `Cc1cn(C2CCCC2)c2nc(Nc3ccncc3)ncc12` [Example 298], less than 10 µM. For `CCC(CC)n1c(C(=O)NC2CCCC2)cc2cnc(Nc3ccc(N4CCNCC4)cc3)nc21` [Example 344], the IC50 is less than 10 µM.

With `CC(=O)N1CCN(c2ccc(Nc3ncc4ccn(C5CCOCC5)c4n3)cc2)CC1` [Example 228], the IC50 was less than 10 µM. Take `CCC(C)n1ccc2cnc(Nc3ccc(N4CCN(C(C)=O)CC4)cc3)nc21` (centres unmarked) [Example 222]: the IC50 is less than 10 µM. On to `CCC(CC)n1c(COC)cc2cnc(Nc3ccc(C(=O)NC4CCCC4)cc3)nc21` [Example 380], for which the IC50 was less than 10 µM. In the case of `CCCCNC(=O)c1cc2cnc(Nc3ccc(N4CCNCC4)cc3)nc2n1C(CC)CC` [Example 336], the IC50 was less than 10 µM.

Regarding `CCOC(=O)C(C(C)C)n1ccc2cnc(Nc3ccc(N4CCN(C(C)=O)CC4)cc3)nc21` (centres unmarked) [Example 223], the IC50 is less than 10 µM.

For the compound `CC(=O)c1c(C)c2cnc(Nc3ccc(N4CCNCC4)cn3)nc2n1C1CCOCC1` [Example 388], the IC50 was less than 10 µM. Take `CC(C)c1cn(C2CCCC2)c2nc(Nc3ccc(N4CCNCC4)cn3)ncc12` [Example 440]: the IC50 is less than 10 µM. `CCC(CC)n1c(CNc2cc(C)[nH]n2)cc2cnc(Nc3ccc(N4CCN(C(C)=O)CC4)cc3)nc21` [Example 372]: the IC50 was less than 10 µM.

`CN(C)CC1CCC(n2ccc3cnc(Nc4ccc(N5CCNCC5)cc4)nc32)C1` (centres unmarked) [Example 249]: the IC50 is less than 10 µM.

Consider `CCC(=O)N1CCN(c2ccc(Nc3ncc4ccn(C(CC)CC)c4n3)cc2)CC1` [Example 237], for which the IC50 is less than 10 µM. Regarding `CCC(CC)n1c(CNC(C)C)cc2cnc(Nc3ccc(N4CCNCC4)cc3)nc21` [Example 367], the IC50 is less than 10 µM.

As for `Cc1cn(C2CCCC2)c2nc(Nc3ccc(N4CCNCC4)nc3)ncc12` [Example 283], the IC50 is less than 10 µM. Same read-out and setting: to `CCC(C(=O)OC)n1ccc2cnc(Nc3ccc(N4CCN(C(C)=O)CC4)cc3)nc21` (centres unmarked) [Example 219] belongs less than 10 µM. Still for that read-out and setting: to `CC(=O)N1CCN(c2ccc(Nc3ncc4ccn(C5CCCC(C)C5)c4n3)cc2)CC1` (centres unmarked) [Example 241] belongs less than 10 µM; to `Cc1cn(-c2ccccn2)c2nc(Nc3ccc(N4CCNCC4)cn3)ncc12` [Example 320, (5-Methyl-7-pyridin-2-yl-7H-pyrrolo[2,3-d]pyrimidin-2-yl)-(5-piperazin-1-yl-pyridin-2-yl)-amine], less than 10 µM. As to `Cc1cn(C2CCCC2)c2nc(Nc3ccc(-n4ccnc4)cc3)ncc12` [Example 312], the IC50 was less than 10 µM. Turning to `CC(=O)N1CCN(c2ccc(Nc3ncc4ccn(C5CCC(C)CC5)c4n3)cc2)CC1` (centres unmarked) [Example 236], the IC50 is less than 10 µM.

For the compound `Cc1cn(C2CCCC2)c2nc(Nc3cccnc3)ncc12` [Example 300], the IC50 was less than 10 µM. Consider `Cc1cn(C2CCCC2)c2nc(Nc3ccc(N4CCCCC4)cc3)ncc12` [Example 278], for which the IC50 was less than 10 µM. `Cc1cn(C2CCCC2)c2nc(Nc3ccc(N(C)C)cc3)ncc12` [Example 311]: the IC50 was less than 10 µM. In the case of `Cc1cn(C2CCCC2)c2nc(Nc3ccc(N4CCOCC4)cn3)ncc12` [Example 302], the IC50 was less than 10 µM.

For the compound `CCC(CC)n1c(C(=O)N2CCOCC2)cc2cnc(Nc3ccc(N4CCNCC4)cc3)nc21` [Example 343], the IC50 is less than 10 µM. Regarding `CC(=O)N1CCN(c2ccc(Nc3ncc4ccn(C(C)CN(C)C)c4n3)cc2)CC1` (centres unmarked) [Example 229], the IC50 was less than 10 µM. For the compound `Cc1cn(C2CCCC2)c2nc(Nc3ccc(S(N)(=O)=O)cc3)ncc12` [Example 288], the IC50 is less than 10 µM. For `CN(C)C(=O)c1cc2cnc(NCc3ccc(N4CCNCC4)cc3)nc2n1C1CCCC1` [Example 467], the IC50 is less than 10 µM. As for `CCC(CC)n1c(C(=O)OC)cc2cnc(Nc3ccc(N4CCN(C(C)=O)CC4)cc3)nc21` [Example 373, 2-[4-(4-Acetyl-piperazin-1-yl)-phenylamino]-7-(1-ethyl-propyl)-7H-pyrrolo[2,3-d]pyrimidine-6-carboxylic acid methyl ester], the IC50 was less than 10 µM. On to `Cc1cc(-c2c(C)c3cnc(Nc4ccc(N5CCNCC5)cn4)nc3n2C2CCCC2)on1` [Example 405], for which the IC50 was less than 10 µM. For `Cc1cn(C2CCCC2)c2nc(Nc3ccc(N4CCNCC4)c(F)c3)ncc12` [Example 285], the IC50 was less than 10 µM.

With `CCC(CC)n1c(C(=O)Nc2ccc(CN3CCN(C)CC3)cc2)cc2cnc(Nc3ccc(N4CCNCC4)cc3)nc21` [Example 354], the IC50 is less than 10 µM.

With `CCC(CC)n1c(CNc2cccnc2)cc2cnc(Nc3ccc(N4CCN(C(C)=O)CC4)cc3)nc21` [Example 369], the IC50 is less than 10 µM.

Regarding `c1cc(N2CCNCC2)ccc1Nc1ncc2ccn(C3CCOCC3)c2n1` [Example 235], the IC50 was less than 10 µM. Take `Cc1cn(C2CCCC2)c2nc(Nc3ccc(CN4CCN(C(=O)OC(C)(C)C)CC4)cc3)ncc12` [Example 462]: the IC50 is less than 10 µM.
